{
  "source": "patent US20210008096A1",
  "about": "“SUPPRESSION OR REDUCTION OF THE PAT[…] VIRULENCE OF A C[…]” (Da Volterra, priority 2015, published 2021)",
  "origin": "cited, not measured here",
  "test_system": "Clostridium difficile",
  "conditions": "following treatment of CDAD; 15% vs 25%",
  "data": [
    {"compound": "CCc1c(Cl)c(O)c(Cl)c(O)c1C(=O)O[C@H]1[C@H](O)[C@H](OC)[C@H](OC/C2=C\\C=C\\C[C@H](O)/C(C)=C/[C@H](CC)[C@@H](O[C@@H]3OC(C)(C)[C@@H](OC(=O)C(C)C)[C@H](O)[C@@H]3O)/C(C)=C/C(C)=C/C[C@@H]([C@@H](C)O)OC2=O)O[C@@H]1C", "note": "[fidaxomycin, fidaxomicin]", "values": [
      {"measurement": "rate of recurrence", "value": 15, "unit": "%"}
    ]}
  ]
}
